Experiments:
Format in all cases: cell-based, human
TCC88 = experiment: Cytokine and chemokine secretion of TCC88 after peptide stimulation; conditions: TCC88 supernatant after peptide stimulation; no peptide control subtracted; Fig. 3e
Description: (§1) Fig. 3 Bacteria-derived and microbiota-derived peptides can stimulate TCC88 as well as the tumour antigen. a, Peptides with the highest predicted stimulatory scores were identified by searching various databases (see Methods). Numbers of unique 10-mer peptides within each database, synthesized peptides, TCC88 stimulatory peptides and the corresponding percentage of stimulatory peptides within each database are shown. […] Cytokine and chemokine secretion of TCC88 was examined and compared upon stimulation with these three different antigens. A specific amount of each cytokine and chemokine (pg ml^−1) was calculated by subtracting the cytokines in the negative control cultures (no peptide control). f, Cytotoxicity of TCC88 against the autologous tumour cell line after stimulation with 2 µM of SIN3A* and HGM3 (data represent the mean percentage of two replicate wells). E:T, effector to target. g, TCC88 was tested with HGM3 (10 µM) or SIN3A* (10 µM) peptides or both together (each 10 µM), and ^3H-thymidine incorporation was measured after 3 days (data represent the mean SI value of three replicate wells ± s.e.m.). Also see Extended Data Figs. 3 and 4. Source data
Supernatants from each experiment were harvested a day before adding thymidine and frozen at −20 °C. Cytokines were measured using ELISA for human IFNγ ELISA MAX (BioLegend), human GM-CSF DuoSet ELISA (R&D Systems) and bead-based assays. A Synergy H1 hybrid multi-mode reader (Agilent) was used to measure the absorbance. The LEGENDplex Multi-analyte Flow Assay kit (BioLegend) is a 13-plex human TH cytokine panel, which includes IFNγ, TNF, IL-2, IL-4, IL-5, IL-6, IL-9, IL-10, IL-13, IL-17A, IL-17F, IL-21 and IL-22. […] LSR Fortessa Flow Cytometer (BD Biosciences) was used to measure cytokines, and data were analysed using FlowJo (Tree Star). The Human XL Cytokine Luminex Performance Assay Fixed Panel (R&D Systems) contains 45 analytes covering a broad range of various chemokines and cytokines.

[1] = test system: autologous glioblastoma cells; experiment: T cell cytotoxicity assay of TCC88 against the autologous tumour cell line; conditions: TCC88 stimulated with 2 µM peptide for 72 h; E:T 1:1 and 5:1; 24 h; duplicates; Fig. 3f
Description: as §1, with “Source data […]” for “Source data”

[2] = test system: sorted CD4+ PE and FITC TCRVβ+ TILs; experiment: Proliferation of TCRBV-sorted CD4+ TILs (without TCRBV6.1 and TCRBV6.2); conditions: sheet 6b
Description: TILs expressing specific TCRBVs were isolated from bulk TILs using a panel of 22 fluorescently labelled TCRBV antibodies that detect 27 different TCRBVs. Twelve TCRBV antibodies were labelled with PE and 10 with FITC (Beckman Coulter). […] After another wash, cells were stained with CD4 (1:100) (APC anti-human CD4, eBioscience), CD8 (1:100) (Pacific blue anti-human CD8, BioLegend), TCRBV-PE (1:25) (Beckman Coulter) and TCRBV-FITC (1:25) (Beckman Coulter) antibodies (Supplementary Table 12) for 30 min. Finally, cells were sorted, seeded at 5 × 10^4 cells per well in T cell medium without h-IL-2 and rested for 1 day before stimulation with 2 × 10^5 cells per well of irradiated autologous PBMCs (45 Gy) and peptide (10 µM).
Two populations of CD4^+ PE-TCRVβ^+ and CD4^+ FITC-TCRVβ^+ were sorted and later mixed together. […] Specific amount of each cytokine/chemokine (pg/ml) was calculated by subtracting the cytokines in the negative control cultures (no peptide control). Source data

Ac-LLEFNHSLGM-NH2 [HGM3]
CCL20/MIP-3α (TCC88): 6.47 pg/mL | CD40 Ligand (TCC88): 1548.01 pg/mL | CXCL1/GROα (TCC88): 80.23 pg/mL | CXCL2/GROβ (TCC88): 106.77 pg/mL | CXCL8/IL-8 (TCC88): 0 pg/mL | CXCL10/IP-10 (TCC88): 30.99 pg/mL | Flt-3 Ligand (TCC88): 108.26 pg/mL | Fractalkine (TCC88): 325.67 pg/mL | GM-CSF (TCC88): 4861.7 pg/mL | Granzyme B (TCC88): 2019.57 pg/mL | IFN-α (TCC88): 2.54 pg/mL | IFN-γ (TCC88): 781.13 pg/mL | IL-1rα (TCC88): 2003.66 pg/mL | IL-1α (TCC88): 12.29 pg/mL | IL-1β (TCC88): 17.76 pg/mL | IL-2 (TCC88): 80.09 pg/mL | IL-3 (TCC88): 109.49 pg/mL | IL-4 (TCC88): 85.48 pg/mL | IL-5 (TCC88): 32.99 pg/mL | IL-6 (TCC88): 151.16 pg/mL | IL-7 (TCC88): 0.74 pg/mL | IL-10 (TCC88): 3974.26 pg/mL | IL-12p70 (TCC88): 26.12 pg/mL | IL-13 (TCC88): 1591.43 pg/mL | IL-15 (TCC88): 2.07 pg/mL | IL-17A (TCC88): 1.97 pg/mL | IL-17E/IL-25 (TCC88): 0 pg/mL | IL-33 (TCC88): 17.4 pg/mL | TNF-α (TCC88): 4132.48 pg/mL | cytotoxic activity against autologous glioblastoma cells (in words) [1]: comparable | Proliferation (SI) of sorted CD4+ TILs ([2]; replicate 1): 1.141 | Proliferation (SI) of sorted CD4+ TILs ([2]; replicate 2): 1.14 | Proliferation (SI) of sorted CD4+ TILs ([2]; replicate 3): 1.525

Source: PMC10208956, “Microbial peptides activate tumour-infiltrating lymphocytes in glioblastoma” (Nature, 2023)
